# Active and inactive are the calls of the source. The rule behind the calls is not given here.
# What was measured:
# [1] = Solubility in ethyl acetate incubated for 10 mins; assay type: physicochemical
# [2] = Solubility in methanol incubated for 10 mins; assay type: physicochemical
# [3] = Solubility in water incubated for 10 mins; assay type: physicochemical
# [4] = Antioxidant activity assessed as clearing rate incubated for 5 mins in presence of pyrogallol by superoxide anion scavenging assay; assay type: functional
# L02 [5] = experiment: Anti-MASH activity in palmitate/oleate-stimulated human LO2 cells assessed as reduction in SCD mRNA level at 10 to 40 uM incubated for 24 hrs by q-PCR analysis; assay type: functional, cell-based; conditions: dose 10-40 µM
# Hepatocyte = experiment: Anti-MASH activity in palmitate/oleate-stimulated mouse primary hepatocytes assessed as reduction in triglyceride level; assay type: functional, cell-based
# L02 [6] = experiment: Anti-MASH activity in CCl4-stimulated human LO2 cells assessed as increase in cell viability up to 10 uM incubated for 24 hrs by MTT assay; assay type: functional, cell-based
# Rattus norvegicus [7] = experiment: (§1) Hepatoprotective activity in male Sprague-Dawley rat model of CCl4-induced ALI assessed as reduction in yellowing of liver at 100 mg/kg, IG qd pretreated with compound for 7 days followed by CCl4 administration after 2 hrs post-compound treatment measured after 16 hrs post-CCl4 injection; assay type: functional, organism-based; conditions: time 186.0 hrs
# Rattus norvegicus [8] = experiment: as §1, with “acute fat deposition” for “yellowing of liver”, “injection by oil red O staining based analysis” for “injection”; assay type: functional, organism-based; conditions: time 186.0 hrs
# Mus musculus [9] = experiment: Anti-MASH activity in HFD-fed CCl4-treated male C57BL/6 mouse assessed as reversal of hepatopancreas somatic indices at 150 mg/kg, po qd treated for 4 weeks; assay type: functional, organism-based
# Mus musculus [10] = experiment: Anti-MASH activity in HFD-fed CCl4-treated male C57BL/6 mouse assessed as restoration of serum AST level at 150 mg/kg, po qd treated for 4 weeks; assay type: functional, organism-based
# [11] = Apparent volume of distribution during terminal phase in overnight-fasted male Sprague-Dawley rat at 150 mg/kg, po measured up to 12 hrs by HPLC analysis; assay type: ADME, organism-based; conditions: in vivo, read-out: Vz/F
smiles,measurement,setting,value
COc1cc([C@@H]2Oc3cc([C@H]4Oc5cc(O)cc(O)c5C(=O)[C@@H]4O)ccc3OC2CS)ccc1O (some centres not stated),solubility,[1],> 1000 mg/mL
same,solubility,[2],913 mg/mL
same,solubility at 10 min,[3],250 µg/mL
same,Activity,[4],82.9%
same,Activity,L02 [5],Active
same,Activity,Hepatocyte,Active
same,Activity,L02 [6],Active
same,Activity,Rattus norvegicus [7],Active
same,Activity,Rattus norvegicus [8],Active
same,Activity,Mus musculus [9],Active
same,Activity,Mus musculus [10],Active; Activity Was Better Than Silybin
same,Vd/F,[11],6.91 L

# Reference: ChEMBL document CHEMBL6182935, “Discovery of a Novel Silybin Derivative for the Treatment of Metabolic Dysfunction-Associated Steatohepatitis” (J Med Chem, 2025)
